From patent US20020028945A1, “Heterocyclo substituted hydroxamic acid derivatives as cyclooxygenase-2 and 5-lipoxygenase inhibitors” (priority 1996, published 2002)

Columns and labels:
[1] = target: T1, COX-2 (UniProt P35354); assay: COX-2 activity in vitro (PGE2 ELISA, recombinant enzyme); format: biochemical, human or murine; conditions: recombinant COX-2, arachidonic acid 10 μM
T1 sequence (P35354 1-604): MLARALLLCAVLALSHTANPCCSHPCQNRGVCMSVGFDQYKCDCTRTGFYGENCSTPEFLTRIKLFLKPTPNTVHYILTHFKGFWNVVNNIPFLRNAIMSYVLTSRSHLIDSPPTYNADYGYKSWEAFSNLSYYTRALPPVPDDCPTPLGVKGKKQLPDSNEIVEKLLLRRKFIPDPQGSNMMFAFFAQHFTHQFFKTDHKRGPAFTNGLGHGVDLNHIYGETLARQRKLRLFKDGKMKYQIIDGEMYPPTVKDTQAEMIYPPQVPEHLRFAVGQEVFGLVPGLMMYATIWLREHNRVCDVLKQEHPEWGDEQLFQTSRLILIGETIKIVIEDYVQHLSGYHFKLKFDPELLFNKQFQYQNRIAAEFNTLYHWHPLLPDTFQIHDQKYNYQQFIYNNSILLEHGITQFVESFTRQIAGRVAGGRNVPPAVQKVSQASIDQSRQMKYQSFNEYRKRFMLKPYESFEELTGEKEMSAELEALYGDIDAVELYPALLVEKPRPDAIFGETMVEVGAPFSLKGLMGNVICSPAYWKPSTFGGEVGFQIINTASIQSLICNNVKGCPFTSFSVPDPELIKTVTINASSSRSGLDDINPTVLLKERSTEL
Procedure: Evaluation of COX-1 and COX-2 activity in vitro
The COX-2 inhibition activity of the compounds of this invention illustrated in the Examples was determined by the following methods. a. Preparation of recombinant COX baculoviruses
(§1) Recombinant COX-1 and COX-2 were prepared as described by Gierse et al, [J. Biochem., 305, 479-84 (1995)]. A 2.0 kb fragment containing the coding region of either human or murine COX-1 or human or murine COX-2 was cloned into a BamH1 site of the baculovirus tra nsfer vector pVL1393 (Invitrogen) to generate the baculovirus transfer vectors for COX-1 and coX-2 in a manner similar to the method of D. R. O'Reilly et al (Baculovirus Expression Vectors: A Laboratory Manual (1992)). Recombinant baculoviruses were isolated by transfecting 4 μg of baculovirus transfer vector DNA into SF9 insect cells (2×10^8) along with 200 ng of linearized baculovirus plasmid DNA by the calcium phosphate method. See M. D. Summers and G. E. Smith, A Manual of Methods for Baculovirus Vectors and Insect Cell Culture Procedures, Texas Agric. Exp. Station Bull. 1555 (1987). Recombinant viruses were purified by three rounds of plaque purification and high titer (10^7-10^8 pfu/ml) stocks of virus were prepared. For large scale production, SF9 insect cells were infected in 10 liter fermentors (0.5×10^6/ml) with the recombinant baculovirus stock such that the multiplicity of infection was 0.1. After 72 hours the cells were centrifuged and the cell pellet homogenized in Tris/Sucrose (50 mM: 25%, pH 8.0) containing 1% 3-[(3-cholamidopropyl)dimethylammonio]-1-propanesulfonate (CHAPS). The homogenate was centrifuged at 10,000×G for 30 minutes, and the resultant supernatant was stored at −80° C. before being assayed for COX activity. […]
(§2) b. Assay for COX-1 and COX-2 activitv
COX activity was assayed as PGE2 formed/μg protein/time using an ELISA to detect the prostaglandin released. […] The PGE2 formed was measured by standard ELISA technology (Cayman Chemical).

[2] = target: COX-1 (UniProt P23219); assay: COX-1 activity in vitro (PGE2 ELISA, recombinant enzyme); format: biochemical, human or murine; conditions: recombinant COX-1, arachidonic acid 10 μM
Procedure: Evaluation of COX-1 and COX-2 activity in vitro a. Preparation of recombinant COX baculoviruses
as §1, §2
COX activity was assayed as PGE2 formed/μg protein/time using an ELISA to detect the prostaglandin released. CHAPS-solubilized insect cell membranes containing the appropriate COX enzyme were incubated in a potassium phosphate buffer (50 mM, pH 8.0) containing epinephrine, phenol, and heme with the addition of arachidonic acid (10 μM). […] The PGE2 formed was measured by standard ELISA technology (Cayman Chemical).

[3] = target: T2, 5-lipoxygenase (5-LO) (Homo sapiens, UniProt P09917); assay: 5-Lipoxygenase activity: calcium ionophore-induced LTB4 production in human whole blood; format: cell-based; conditions: A-23187 20 μg/ml, LTB4 by ELISA, mean IC50
T2 construct: Leukotriene B4 (LTB4) production in human whole blood; from tissue; host or cells: human whole blood (healthy donors, heparinized)
T2 sequence (P09917 1-674): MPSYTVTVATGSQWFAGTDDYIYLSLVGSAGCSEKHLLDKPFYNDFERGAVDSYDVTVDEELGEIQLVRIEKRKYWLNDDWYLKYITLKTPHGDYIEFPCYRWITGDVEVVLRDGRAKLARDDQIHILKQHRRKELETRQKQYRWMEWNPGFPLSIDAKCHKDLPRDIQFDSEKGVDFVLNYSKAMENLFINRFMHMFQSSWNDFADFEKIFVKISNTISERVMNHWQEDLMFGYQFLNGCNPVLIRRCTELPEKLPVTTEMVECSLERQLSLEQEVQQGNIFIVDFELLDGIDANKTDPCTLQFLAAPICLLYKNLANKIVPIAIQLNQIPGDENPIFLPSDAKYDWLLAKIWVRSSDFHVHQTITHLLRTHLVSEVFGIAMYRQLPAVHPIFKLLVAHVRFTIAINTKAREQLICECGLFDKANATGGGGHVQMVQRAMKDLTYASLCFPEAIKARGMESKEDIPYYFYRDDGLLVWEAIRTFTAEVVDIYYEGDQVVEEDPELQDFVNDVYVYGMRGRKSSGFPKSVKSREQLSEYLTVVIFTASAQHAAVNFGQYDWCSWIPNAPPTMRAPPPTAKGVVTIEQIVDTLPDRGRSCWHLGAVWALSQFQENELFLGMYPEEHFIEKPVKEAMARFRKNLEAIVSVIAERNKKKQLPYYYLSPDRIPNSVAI
Procedure: Assay for 5-Lipoxygenase activity
The 5-lipoxygenase (5-LO) activity of the compounds were determined by the calcium ionophore-induced Leukotriene B4 (LTB4) production in human whole blood. Venous blood was collected from healthy human donors using heparin as an anti-coagulant. Human blood samples (0.2 ml of a 1:4 dilution in RPMI 1640 medium) were incubated in 96-well culture plates for 15 minutes at 37° C. with test compounds dissolved in ethanol (EtOH; final concentration <1%), or vehicle. Typically 7 concentrations of test compounds were examined in duplicate. A-23187 [Sigma] was added to the blood to a final concentration of 20 μg/ml, and the mixtures were incubated for 10 minutes at 37° C. The reaction was stopped by placing the samples on ice. The samples were then centrifuged at 800×g at 4° C. for 10 minutes to pellet the cells, and the supernatants were recovered for quantitation of LTB4 by ELISA (Cayman Chemical Co.; sensitivity 3 pg/ml). IC50's were estimated from a four parameter logistic model with two parameters fixed, the minimum (0% inhibition) and maximum (100% inhibition). The IC50 value is the concentration that produces 50% inhibition between the fixed values of the minimum and maximum. Data is reported as the mean IC50 for each compound.

[4] = test system: carrageenan foot edema; assay: Rat carrageenan foot pad edema test; format: in vivo; conditions: male Sprague-Dawley rats, oral, 3 h after carrageenan
Procedure: Rat Carrageenan Foot Pad Edema Test
The carrageenan foot edema test was performed with materials, reagents and procedures essentially as described by Winter, et al., (Proc. Soc. Exp. Biol. Med., 111, 544 (1962)). Male Sprague-Dawley rats were selected in each group so that the average body weight was as close as possible. Rats were fasted with free access to water for over sixteen hours prior to the test. The rats were dosed orally (1 mL) with compounds suspended in vehicle containing 0.5% methylcellulose and 0.025% surfactant, or with vehicle alone. One hour later a subplantar injection of 0.1 mL of 1% solution of carrageenan/sterile 0.9% saline was administered and the volume of the injected foot was measured with a displacement plethysmometer connected to a pressure transducer with a digital indicator. Three hours after the injection of the carrageenan, the volume of the foot was again measured. The average foot swelling in a group of drug-treated animals was compared with that of a group of placebo-treated animals and the percentage inhibition of edema was determined (Otterness and Bliven, Laboratory Models for Testing NSAIDs, in Non-steroidal Anti-Inflammatory Drugs, (J. Lombardino, ed. 1985)).

| melting point | IC50 [1] | IC50 [2] | IC50 [3] | Compound | RAT PAW EDEMA % Inhibition @ 10 mg/kg body weight [4] |
| --- | --- | --- | --- | --- | --- |
| 110 to 135 °C (dec.) |  |  |  | CN(O)C(=O)Cc1cc(-c2ccc(Cl)cc2)n(-c2ccc(S(N)(=O)=O)cc2)n1 [Example 3, [1-[4-(Aminosulfonyl)phenyl]-5-(4-chlorophenyl)-1H-pyrazol-3-yl]-N-hydroxy-N-methyl-ethanamide] |  |
|  | 6.6 µM | 53.5 µM | 12.3 µM | NC(=O)N(O)Cc1cc(-c2ccc(Cl)cc2)n(-c2ccc(S(N)(=O)=O)cc2)n1 [Example 1, N′-[[1-[4-(Aminosulfonyl)phenyl]-5-(4-chlorophenyl)-1H-pyrazol-3-yl]methyl]-N′-hydroxyurea] |  |
| 165 to 169.7 °C | 0.3 µM | 12.5 µM |  | NS(=O)(=O)c1ccc(-c2nc(CCCC(=O)NO)oc2-c2ccc(Cl)c(Cl)c2)cc1 [Example 4, 4-[(4-Aminosulfonyl)phenyl]-5-(3,4-dichlorophenyl)-N-hydroxy-2-oxazole-butanamide] |  |
|  | 5.1 µM | > 100 µM | 0.05 µM | CN(O)C(=O)CCc1nc(-c2ccc(F)cc2)c(-c2ccc(S(C)(=O)=O)cc2)o1 [Example 2, 4-(4-Fluorophenyl)-N-hydroxy-N-methyl-5-[(4-methylsulfonyl)phenyl]-2-oxazolepropanamide] | 2% |
